By Inhibition is commonly meant how much of the control response was suppressed.

This note sets out measurements from ChEMBL document CHEMBL1132938, “Novel synthetic oleanane and ursane triterpenoids with various enone functionalities in ring A as inhibitors of nitric oxide production in mouse macrophages” (J Med Chem, 2000).

The species entered for this assay is Mus musculus. In words: Percent inhibition of nitric oxide production induced by IFN-uM concentration. Further details: concentration or dose not given beside the values. The assay is classed as functional.
The compound `CC1(C)CCC2(C=O)CC[C@]3(C)[C@H](C(=O)C[C@@H]4[C@@]5(C)CCC(=O)C(C)(C)[C@@H]5CC[C@]43C)C2C1` (some centres not stated) returned an Inhibition of 38%.

On to `CC1(C)CCC2(C(=O)O)CC[C@]3(C)C(=CC[C@@H]4[C@@]5(C)CC[C@@H](Cl)C(C)(C)[C@@H]5CC[C@]43C)C2C1` (some centres not stated), for which the Inhibition worked out at 0%.

`C=C(C)[C@@H]1CC[C@]2(C)[C@H](CC=C3C4[C@@H](C)[C@H](C)CC[C@]4(C(=O)O)CC[C@]32C)[C@@]1(C)CCC#N` (some centres not stated): the Inhibition was found to be 39%.

In turn, `CC1(C)CCC2(CO)CC[C@]3(C)[C@@H](C2C1)[C@@H](O)C[C@@H]1[C@@]2(C)CC[C@H](O)C(C)(C)[C@@H]2CC[C@]13C` (some centres not stated) had an Inhibition of 48%.

For `CC(=O)O[C@H]1CC[C@]2(C)[C@H]3CC=C4C5[C@@H](C)[C@H](C)CCC5(C(=O)O)CC[C@@]4(C)[C@]3(C)CC[C@H]2C1(C)C` (some centres not stated), the Inhibition amounted to 0%.

For `CC(=O)OC[C@]12CCC(C)(C)CC1C(=O)[C@](C)([C@]1(C)CC[C@H]3C(C)(C)[C@@H](OC(C)=O)CC[C@]3(C)[C@H]1CC(=O)O)CC2` (some centres not stated), the Inhibition is 52%.

In turn, `C=C(C)[C@@H]1CC[C@]2(C)[C@H](CC=C3C4CC(C)(C)CC[C@]4(C(=O)O)CC[C@]32C)[C@@]1(C)CCC=O` (some centres not stated) displayed an Inhibition of 22%.

`CC1(C)CCC2(C(=O)O)CC[C@]3(C)C(=CC[C@@H]4[C@@]5(C)CCC(=O)NC(C)(C)[C@@H]5CC[C@]43C)C2C1` (some centres not stated) came in with an Inhibition of 51%.

`CC(=O)OCC12CCC(C)(C)CC1[C@H]1[C@@H](O)C[C@@H]3[C@@]4(C)CC[C@H](OC(C)=O)C(C)(C)[C@@H]4CC[C@@]3(C)[C@]1(C)CC2` (some centres not stated) came in with an Inhibition of 0%.

`CC1(C)CCC2(C(=O)O)CC[C@]3(C)C(=CC[C@@H]4[C@@]5(C)CC[C@@H](O)C(C)(C)[C@@H]5CC[C@]43C)C2C1` (some centres not stated) came in with an Inhibition of 18%.

`C[C@@H]1CCC2(C(=O)O)CC[C@]3(C)C(=CC[C@@H]4[C@@]5(C)CC[C@@H](O)C(C)(C)[C@@H]5CC[C@]43C)C2[C@H]1C` (some centres not stated) yielded an Inhibition of 48%.

`CC(=O)OCC12CCC(C)(C)CC1[C@H]1[C@H](OC(C)=O)C[C@@H]3[C@@]4(C)CC[C@H](OC(C)=O)C(C)(C)[C@@H]4CC[C@@]3(C)[C@]1(C)CC2` (some centres not stated) yielded an Inhibition of 0%.

On to `CC(=O)OCC12CC[C@@H](C)[C@H](C)C1C1=CC[C@@H]3[C@@]4(C)CC[C@H](OC(C)=O)C(C)(C)[C@@H]4CC[C@@]3(C)[C@]1(C)CC2` (some centres not stated), for which the Inhibition turned out to be 0%.

Compound `COC(=O)[C@]12CCC(C)(C)C[C@H]1C1=CC[C@@H]3[C@@]4(C)CC[C@H](O)C(C)(C)[C@@H]4CC[C@@]3(C)[C@]1(C)CC2` [METHYL OLEANOLATE] came in with an Inhibition of 0%.

In the case of `C[C@@H]1CC[C@]2(C(=O)O)CC[C@]3(C)C(=CC[C@@H]4[C@@]5(C)C[C@@H](Cl)C(=O)C(C)(C)[C@@H]5CC[C@]43C)C2[C@H]1C` (some centres not stated), the Inhibition worked out at 55%.

On to `C=C(C)[C@@H]1CC[C@]2(C)[C@H](CC=C3C4[C@@H](C)[C@H](C)CC[C@]4(C(=O)O)CC[C@]32C)[C@@]1(C)CCC(=O)O` (some centres not stated), for which the Inhibition worked out at 10%.

`CC(=O)OCC12CCC(C)(C)CC1C1=CC[C@@H]3[C@@]4(C)CC[C@H](OC(C)=O)C(C)(C)[C@@H]4CC[C@@]3(C)[C@]1(C)CC2` (some centres not stated): the Inhibition is listed as 4%.

Compound `CC1(C)CC[C@@]23CC[C@]4(C)[C@](OC2=O)(C(=O)C[C@@H]2[C@@]5(C)CCC(=O)C(C)(C)[C@@H]5CC[C@]24C)C3C1` (some centres not stated) returned an Inhibition of 0%.

For `COC(=O)C12CCC(C)(C)CC1[C@H]1C(=O)C[C@@H]3[C@@]4(C)CC[C@H](OC(C)=O)C(C)(C)[C@@H]4CC[C@@]3(C)[C@]1(C)CC2` (some centres not stated), the Inhibition was found to be 0%.

In turn, `C=C(C)[C@@H]1CC[C@]2(C)[C@H](CC=C3C4CC(C)(C)CC[C@]4(C(=O)OC)CC[C@]32C)[C@@]1(C)CCC#N` (some centres not stated) registered an Inhibition of 21%.

For `CC1(C)CCC2(CO)CC[C@]3(C)C(=CC[C@@H]4[C@@]5(C)CC[C@H](O)C(C)(C)[C@@H]5CC[C@]43C)C2C1` (some centres not stated), the Inhibition amounted to 0%.

In turn, `CC1(C)CC[C@@]23CC[C@]4(C)[C@@](OC2=O)(C3C1)[C@@H](Br)C[C@@H]1[C@@]2(C)CCC(=O)C(C)(C)[C@@H]2CC[C@]14C` (some centres not stated) had an Inhibition of 4%.

On to `C[C@@H]1CCC2(C=O)CC[C@]3(C)C(=CC[C@@H]4[C@@]5(C)CCC(=O)C(C)(C)[C@@H]5CC[C@]43C)C2[C@H]1C` (some centres not stated), for which the Inhibition is given as 21%.

Compound `COC(=O)C12CC[C@@H](C)[C@H](C)C1C1=CC[C@@H]3[C@@]4(C)CCC(=O)C(C)(C)[C@@H]4CC[C@@]3(C)[C@]1(C)CC2` (some centres not stated) came in with an Inhibition of 16%.

Regarding `CC1(C)CCC2(C(=O)O)CC[C@]3(C)C(=CC[C@@H]4[C@@]5(C)CC=CC(C)(C)[C@@H]5CC[C@]43C)C2C1` (some centres not stated), the Inhibition came out at 0%.

In turn, `COC(=O)C12CCC(C)(C)CC1C1=CC[C@@H]3[C@@]4(C)CC=CC(C)(C)[C@@H]4CC[C@@]3(C)[C@]1(C)CC2` (some centres not stated) yielded an Inhibition of 3%.

Compound `COC(=O)C12CC[C@@H](C)[C@H](C)C1C1=CC[C@@H]3[C@@]4(C)CC[C@H](O)C(C)(C)[C@@H]4CC[C@@]3(C)[C@]1(C)CC2` (some centres not stated) gave an Inhibition of 0%.

`CC1(C)CCC2(C=O)CC[C@]3(C)C(=CC[C@@H]4[C@@]5(C)CCC(=O)C(C)(C)[C@@H]5CC[C@]43C)C2C1` (some centres not stated) came in with an Inhibition of 11%.

Compound `C[C@@H]1CCC2(C(=O)O)CC[C@]3(C)C(=CC[C@@H]4[C@@]5(C)CCC(=O)C(C)(C)[C@@H]5CC[C@]43C)C2[C@H]1C` (some centres not stated) showed an Inhibition of 22%.

In the case of `COC(=O)C12CCC(C)(C)CC1[C@H]1C(=O)C[C@@H]3[C@@]4(C)CCC(=O)C(C)(C)[C@@H]4CC[C@@]3(C)[C@]1(C)CC2` (some centres not stated), the Inhibition amounted to 3%.

`CC(=O)OC[C@]12CCC(C)(C)CC1C(O)[C@](C)([C@]1(C)CC[C@H]3C(C)(C)[C@@H](OC(C)=O)CC[C@]3(C)[C@H]1CCO)CC2` (some centres not stated) yielded an Inhibition of 12%.

On to `CC1(C)CCC2(CO)CC[C@]3(C)[C@@H](C2C1)[C@H](O)C[C@@H]1[C@@]2(C)CC[C@H](O)C(C)(C)[C@@H]2CC[C@]13C` (some centres not stated), for which the Inhibition was 20%.

`CC(=O)O[C@H]1CC[C@]2(C)[C@H]3CC=C4[C@@H]5CC(C)(C)CC[C@]5(C(=O)O)CC[C@@]4(C)[C@]3(C)CC[C@H]2C1(C)C` [ACETYL OLEANOLIC ACID]: the Inhibition came out at 0%.

`COC(=O)C12CC[C@@H](C)[C@H](C)C1C1=CC[C@@H]3[C@@]4(C)C=CC(=O)C(C)(C)[C@@H]4CC[C@@]3(C)[C@]1(C)CC2` (some centres not stated) came in with an Inhibition of 0%.

In the case of `CC1(C)CCC2(CO)CC[C@]3(C)[C@@](O)(C2C1)[C@@H](O)C[C@@H]1[C@@]2(C)CC[C@H](O)C(C)(C)[C@@H]2CC[C@]13C` (some centres not stated), the Inhibition came out at 22%.

Consider `CC(C)C1=C2CC[C@]3(C)[C@H](CC=C4C5CC(C)(C)CCC5(C(=O)O)CC[C@]43C)[C@@]2(C)CC1` (some centres not stated), for which the Inhibition amounted to 0%.

In the case of `COC(=O)C12CC[C@@H](C)[C@H](C)C1C1=CC[C@@H]3[C@@]4(C)CC[C@H](OC(C)=O)C(C)(C)[C@@H]4CC[C@@]3(C)[C@]1(C)CC2` (some centres not stated), the Inhibition was determined as 15%.

`CC1(C)CC[C@]2(C(=O)O)CC[C@@](C)([C@]3(C)CC[C@H]4C(C)(C)C(=O)CC[C@]4(C)[C@H]3CC(=O)O)C(=O)C2C1` (some centres not stated): the Inhibition was 28%.

With `COC(=O)C12CCC(C)(C)CC1C1=CC[C@@H]3[C@@]4(C)CC[C@H](OC(C)=O)C(C)(C)[C@@H]4CC[C@@]3(C)[C@]1(C)CC2` (some centres not stated), the Inhibition is reported as 10%.

In turn, `CC1(C)CCC2(C(=O)O)CC[C@]3(C)[C@H](C(=O)C[C@@H]4[C@@]5(C)CCC(=O)C(C)(C)[C@@H]5CC[C@]43C)C2C1` (some centres not stated) came in with an Inhibition of 37%.

`COC(=O)C12CCC(C)(C)CC1[C@]13O[C@H]1C[C@@H]1[C@@]4(C)CC[C@H](OC(C)=O)C(C)(C)[C@@H]4CC[C@@]1(C)[C@]3(C)CC2` (some centres not stated): the Inhibition was 0%.

Take `COC(=O)C12CCC(C)(C)CC1C1=CC[C@@H]3[C@@]4(C)CC[C@@H](Cl)C(C)(C)[C@@H]4CC[C@@]3(C)[C@]1(C)CC2` (some centres not stated): the Inhibition amounted to 2%.

Take `CC1(C)CCC2(C(=O)O)CC[C@]3(C)C(=C2C1)C=C[C@@H]1[C@@]2(C)CCC(=O)C(C)(C)[C@@H]2CC[C@]13C` (some centres not stated): the Inhibition turned out to be 47%.

`COC(=O)C12CCC(C)(C)CC1[C@H]1C(=O)C[C@@H]3[C@@]4(C)CC[C@H](O)C(C)(C)[C@@H]4CC[C@@]3(C)[C@]1(C)CC2` (some centres not stated): the Inhibition was 0%.

`CC1(C)CC[C@]2(C(=O)O)CC[C@]3(C)C(=CC[C@@H]4[C@@]5(C)C=CC(=O)C(C)(C)[C@@H]5CC[C@]43C)C2C1` (some centres not stated) registered an Inhibition of 85%.

`C=C(C)[C@@H]1CC[C@]2(C)[C@H](CC=C3C4[C@@H](C)[C@H](C)CC[C@]4(C(=O)O)CC[C@]32C)[C@@]1(C)CCC=O` (some centres not stated) registered an Inhibition of 55%.

In turn, `CC1(C)CC[C@@]23CC[C@]4(C)[C@@](OC2O)(C3C1)[C@@H](O)C[C@@H]1[C@@]2(C)CC[C@H](O)C(C)(C)[C@@H]2CC[C@]14C` (some centres not stated) returned an Inhibition of 21%.

`COC(=O)C12CCC(C)(C)CC1C1=CC[C@@H]3[C@@]4(C)CCC(=O)C(C)(C)[C@@H]4CC[C@@]3(C)[C@]1(C)CC2` (some centres not stated) registered an Inhibition of 24%.

With `C[C@]12CCC(=O)C=C1CC[C@@H]1[C@@H]2[C@@H](O)C[C@@]2(C)[C@H]1CC[C@]2(O)C(=O)CO` [HYDROCORTISONE], the Inhibition was 80%.

Take `CC1(C)CC[C@]2(C(=O)O)CC[C@]3(C)C(=CC[C@@H]4[C@@]5(C)CCC(=O)C(C)(C)[C@@H]5CC[C@]43C)[C@@H]2C1` [OLEANONIC ACID]: the Inhibition was 16%.

Turning to `COC(=O)C12CCC(C)(C)CC1[C@H]1[C@@H](O)C[C@@H]3[C@@]4(C)CC[C@H](OC(C)=O)C(C)(C)[C@@H]4CC[C@@]3(C)[C@]1(C)CC2` (some centres not stated), the Inhibition is 0%.

`CC1(C)CC[C@]2(C(=O)O)CC[C@]3(C)C(=CC[C@@H]4[C@@]5(C)CC[C@H](O)C(C)(C)[C@@H]5CC[C@]43C)[C@@H]2C1` [OLEANOLIC_ACID] returned an Inhibition of 38%.
